Structures are written as SMILES. Numbered stars: 1 amine (or outer) side, 2 acyl side, 3 side chain; on linkers, the order of the positions; unused ones are H or OH. Bridge positions count the residues as written; N and C are the ends. Square brackets hold non-standard residues; d marks the D form. Peptide text beside a SMILES is read from it. * marks the point of attachment. ξ: configuration not given here. Phe(3-CF3) = N[C@@H](Cc1cccc(C(F)(F)F)c1)C(=O)O; Phe(4-COOH) = N[C@@H](Cc1ccc(C(=O)O)cc1)C(=O)O; Bip = N[C@@H](Cc1ccc(-c2ccccc2)cc1)C(=O)O; NH(CH2)14COOH = O=C(O)CCCCCCCCCCCCCCN*; Phe(3-Me) = Cc1cccc(C[C@H](N)C(=O)O)c1; Phe(4-Me) = Cc1ccc(C[C@H](N)C(=O)O)cc1; βAsp = O=C(O)[C@H](CC(=O)[*:2])N[*:1]; NH(CH2)12COOH = O=C(O)CCCCCCCCCCCCN*; Val(3-OH) = CC(C)(O)[C@H](N)C(=O)O; 4Pal = N[C@@H](Cc1ccncc1)C(=O)O; Cha = N[C@@H](CC1CCCCC1)C(=O)O; Cit = NC(=O)NCCC[C@H](N)C(=O)O; Thr(3ξ) = CC(O)[C@H](N)C(=O)O; X20 = CN(CCCCCCCCCCC(=O)O)*; 12Ado = NCCCCCCCCCCCC(=O)O; hSer = N[C@@H](CCO)C(=O)O; Carboxymethyl = O=C(O)C*; Nle = CCCC[C@H](N)C(=O)O; Orn = NCCC[C@H](N)C(=O)O; Aun = NCCCCCCCCCCC(=O)O; Dab = NCC[C@H](N)C(=O)O; Dap = NC[C@H](N)C(=O)O; AEEA = NCCOCCOCC(=O)O

Drawing on patent publication US20260022142A1, “MACROCYCLIC IMMUNOMODULATORS” (Bristol-Myers Squibb Company, priority 2022, published 2026), this text covers IC50 for 13 compounds.

For this assay, the target named is T1, PD-1/PD-L1 interaction (PE-labeled human PD-L1-Ig binding to Jurkat cell line over-expressing human PD-1) (Homo sapiens, UniProt Q15116).
T1 construct: expressed in transfected cells; host or cells: Jurkat
T1 sequence (Q15116 25-288): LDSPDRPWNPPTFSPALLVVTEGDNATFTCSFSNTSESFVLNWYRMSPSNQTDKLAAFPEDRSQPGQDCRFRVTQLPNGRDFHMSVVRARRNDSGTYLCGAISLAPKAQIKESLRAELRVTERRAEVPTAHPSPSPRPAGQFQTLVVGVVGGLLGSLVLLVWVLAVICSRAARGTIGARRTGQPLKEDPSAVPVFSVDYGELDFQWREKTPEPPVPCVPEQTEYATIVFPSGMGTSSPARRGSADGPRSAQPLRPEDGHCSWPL
Description: Jurkat-PD-1 Cell Binding High-Content Screening Assay (CBA). The conditions noted are these: Jurkat cell line over-expressing human PD-1; PE-labeled PD-L1-Ig 20 nM final; read-out: Jurkat hPD1-PDL1 IC50. It is filed as cell-based. In short, it runs like this: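 Jurkat-hPD-1 cells, DMEM/10% FCS; cpd 2 h 37° C; PE-PD-L1-Ig 20 nM final, 1 h; 4% PFA fix + Hoechst 33342, 3× dPBS wash; high-content imaging read-out.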
With `COC[C@@H]1NC(=O)CSC[C@@H](C(=O)N[C@@H](CCN)C(=O)NCCCCCCCCCCCCCCC(=O)O)NC(=O)[C@H](CO)NC(=O)[C@H](C(C)(C)O)NC(=O)[C@H](CC2CCCCC2)NC(=O)[C@H](CCN)NC(=O)[C@@H](CC(C)C)NC(=O)[C@H](CCCN)NC(=O)[C@H](Cc2ccc(C(=O)O)cc2)NC(=O)[C@H](Cc2ccc(-c3ccccc3)cc2)NC(=O)[C@H](Cc2ccc(C(=O)O)cc2)NC(=O)[C@H](Cc2cccc(C(F)(F)F)c2)NC(=O)[C@H](CC(=O)O)NC(=O)[C@H](Cc2ccc(OCC(=O)O)cc2)NC1=O` [Compound 2908] ({CH2CO}-S(Me)Y(Carboxymethyl)D[Phe(3-CF3)][Phe(4-COOH)][Bip][Phe(4-COOH)][Orn][dL][Dab][Cha][Val(3-OH)]SC[Dab]-{NH(CH2)14COOH}; thioether N-14), the IC50 came out at 541 nM. To `Cc1cccc(C[C@@H]2NC(=O)[C@H](CC(=O)O)NC(=O)[C@H](Cc3ccc(OCC(=O)O)cc3)NC(=O)[C@H](CN)NC(=O)CSC[C@@H](C(=O)N[C@@H](C)C(=O)N[C@@H](CC(=O)O)C(=O)NCCOCCOCC(=O)N[C@@H](CC(=O)NCCOCCOCC(=O)NCCCCCCCCCCC(=O)O)C(=O)O)NC(=O)[C@H]([C@@H](C)O)NC(=O)[C@H](C(C)C)NC(=O)[C@H](CC3CCCCC3)NC(=O)[C@H](CCN)NC(=O)[C@@H](CC(C)C)NC(=O)[C@H](CCCN)NC(=O)[C@H](CCCNC(N)=O)NC(=O)[C@H](Cc3ccc(-c4ccccc4)cc3)NC(=O)[C@H](C(C)C)NC2=O)c1` [Compound 1021] ({CH2CO}-[Dap]Y(Carboxymethyl)D[Phe(3-Me)]V[Bip][Cit][Orn][dL][Dab][Cha]VTCAD[AEEA][βAsp][AEEA][Aun]-OH; thioether N-14) belongs 8.3 nM; to `CCCC[C@@H]1NC(=O)CSC[C@@H](C(=O)N[C@@H](CCN)C(=O)NCCOCCOCC(=O)NCCCCCCCCCCCCC(=O)O)NC(=O)[C@H](CO)NC(=O)[C@H](C(C)(C)O)NC(=O)[C@H](CC2CCCCC2)NC(=O)[C@H](CCN)NC(=O)[C@@H](CC(C)C)NC(=O)[C@H](CCCN)NC(=O)[C@H](Cc2ccc(C(=O)O)cc2)NC(=O)[C@H](Cc2ccc(-c3ccccc3)cc2)NC(=O)[C@H](Cc2ccc(C(=O)O)cc2)NC(=O)[C@H](Cc2cccc(C)c2)NC(=O)[C@H](CC(=O)O)NC(=O)[C@H](Cc2ccc(OCC(=O)O)cc2)NC1=O` [Compound 3841] ({CH2CO}-[Nle]Y(Carboxymethyl)D[Phe(3-Me)][Phe(4-COOH)][Bip][Phe(4-COOH)][Orn][dL][Dab][Cha][Val(3-OH)]SC[Dab][AEEA]-{NH(CH2)12COOH}; thioether N-14), 34.1 nM; to `CC(C)C[C@H]1NC(=O)[C@H](CCCN)NC(=O)[C@H](Cc2ccc(O)cc2)NC(=O)[C@H](Cc2ccc(-c3ccccc3)cc2)NC(=O)[C@H](Cc2ccc(O)cc2)NC(=O)[C@H](Cc2c[nH]c3ccccc23)NC(=O)[C@H](CC(=O)O)NC(=O)[C@H](Cc2ccc(OCC(=O)O)cc2)NC(=O)[C@H](C(C)O)NC(=O)CSC[C@@H](C(=O)N[C@@H](CCN)C(=O)NCCCCCCCCCCC(=O)O)NC(=O)[C@H](CCCCN)NC(=O)[C@H](C(C)O)NC(=O)[C@H](CC2CCCCC2)NC(=O)[C@H](CCN)NC1=O` (stereo partly drawn) [Compound 3670] ({CH2CO}-[Thr(3ξ)]Y(Carboxymethyl)DWY[Bip]Y[Orn][dL][Dab][Cha][Thr(3ξ)]KC[Dab][Aun]-OH; thioether N-14), 64.2 nM. Regarding `CC(C)C[C@H]1NC(=O)[C@H](CCCN)NC(=O)[C@H](C(C)C)NC(=O)[C@H](Cc2ccc(-c3ccccc3)cc2)NC(=O)[C@H](C(C)C)NC(=O)[C@H](Cc2c[nH]c3ccccc23)NC(=O)[C@H](CC(=O)O)NC(=O)[C@H](Cc2ccc(OCC(=O)O)cc2)NC(=O)[C@H](CN)NC(=O)CSC[C@@H](C(=O)N[C@@H](CCCCN)C(=O)NCCCCCCCCCCCC(=O)O)NC(=O)[C@H](C(C)O)NC(=O)[C@H](C(C)C)NC(=O)[C@H](CC2CCCCC2)NC(=O)[C@H](CCCNC(=N)N)NC1=O` (stereo partly drawn) [Compound 3150] ({CH2CO}-[Dap]Y(Carboxymethyl)DWV[Bip]V[Orn][dL]R[Cha]V[Thr(3ξ)]CK[12Ado]-OH; thioether N-14), the IC50 amounted to 58.7 nM. Turning to `Cc1cccc(C[C@@H]2NC(=O)[C@H](CC(=O)O)NC(=O)[C@H](Cc3ccc(OCC(=O)O)cc3)NC(=O)[C@H](CN)NC(=O)CSC[C@@H](C(=O)N[C@@H](C)C(=O)N[C@@H](CCN)C(=O)NCCCCCCCCCCC(=O)O)NC(=O)[C@H]([C@@H](C)O)NC(=O)[C@H](C(C)C)NC(=O)[C@H](CC3CCCCC3)NC(=O)[C@H](Cc3cnc[nH]3)NC(=O)[C@@H](CC(C)C)NC(=O)[C@H](CCCN)NC(=O)[C@H](C(C)C)NC(=O)[C@H](Cc3ccc(-c4ccccc4)cc3)NC(=O)[C@H](C(C)C)NC2=O)c1` [Compound 1112] ({CH2CO}-[Dap]Y(Carboxymethyl)D[Phe(3-Me)]V[Bip]V[Orn][dL]H[Cha]VTCA[Dab][Aun]-OH; thioether N-14), the half-inhibitory concentration (IC50) was 18.2 nM. With `Cc1cccc(C[C@@H]2NC(=O)[C@H](CC(=O)O)NC(=O)[C@H](Cc3ccc(OCC(=O)O)cc3)NC(=O)[C@H](CN)NC(=O)CSC[C@@H](C(=O)N[C@@H](CCN)C(=O)NCCOCCOCC(=O)NCCCCCCCCCCC(=O)O)NC(=O)[C@H](CCCNC(=N)N)NC(=O)[C@H](Cc3ccc(O)cc3)NC(=O)[C@H](CC3CCCCC3)NC(=O)[C@H](CCN)NC(=O)[C@@H](CC(C)C)NC(=O)[C@H](CCCN)NC(=O)[C@H](Cc3ccc(O)cc3)NC(=O)[C@H](Cc3ccc(-c4ccccc4)cc3)NC(=O)[C@H](Cc3ccc(O)cc3)NC2=O)c1` [Compound 2506] ({CH2CO}-[Dap]Y(Carboxymethyl)D[Phe(3-Me)]Y[Bip]Y[Orn][dL][Dab][Cha]YRC[Dab][AEEA][Aun]-OH; thioether N-14), the IC50 stood at 32.4 nM. On to `Cc1ccc(C[C@@H]2NC(=O)[C@H](Cc3cccc(C)c3)NC(=O)[C@H](CC(=O)O)NC(=O)[C@H](Cc3ccc(OCC(=O)O)cc3)NC(=O)[C@H](Cc3ccncc3)NC(=O)CSC[C@@H](C(=O)N[C@@H](CCN)C(=O)NCCCCCCCCCCC(=O)O)NC(=O)[C@H](CO)NC(=O)[C@H](C(C)(C)O)NC(=O)[C@H](CC3CCCCC3)NC(=O)[C@H](CCN)NC(=O)[C@@H](CC(C)C)NC(=O)[C@H](CCCN)NC(=O)[C@H](Cc3ccc(OCC(=O)O)cc3)NC(=O)[C@H](Cc3ccc(-c4ccccc4)cc3)NC2=O)cc1` [Compound 2190] ({CH2CO}-[4Pal]Y(Carboxymethyl)D[Phe(3-Me)][Phe(4-Me)][Bip]Y(Carboxymethyl)[Orn][dL][Dab][Cha][Val(3-OH)]SC[Dab][Aun]-OH; thioether N-14), for which the half-inhibitory concentration (IC50) was found to be 19.6 nM. `Cc1cccc(C[C@@H]2NC(=O)[C@H](CC(=O)O)NC(=O)[C@H](Cc3ccc(OCC(=O)O)cc3)NC(=O)[C@H](Cc3ccc(OCC(=O)O)cc3)NC(=O)CSC[C@@H](C(=O)NCCOCCOCC(=O)N(C)CCCCCCCCCCC(=O)O)NC(=O)[C@H](C(C)O)NC(=O)[C@H](C(C)C)NC(=O)[C@H](CC3CCCCC3)NC(=O)[C@H](CCN)NC(=O)[C@@H](CC(C)C)NC(=O)[C@H](CCCN)NC(=O)[C@H](CCCNC(N)=O)NC(=O)[C@H](Cc3ccc(-c4ccccc4)cc3)NC(=O)[C@H](C(C)C)NC2=O)c1` (stereo partly drawn) [Compound 3509] ({CH2CO}-Y(Carboxymethyl)Y(Carboxymethyl)D[Phe(3-Me)]V[Bip][Cit][Orn][dL][Dab][Cha]V[Thr(3ξ)]C[AEEA]-X20; thioether N-14): the half-maximal inhibitory concentration (IC50) came out at 136 nM. Turning to `Cc1cccc(C[C@@H]2NC(=O)[C@H](CC(=O)O)NC(=O)[C@H](Cc3ccc(OCC(=O)O)cc3)NC(=O)[C@H](CN)NC(=O)CSC[C@@H](C(=O)N[C@@H](CCN)C(=O)NCCCCCCCCCCC(=O)O)NC(=O)[C@H](CCO)NC(=O)[C@H](C(C)C)NC(=O)[C@H](CC3CCCCC3)NC(=O)[C@H](CCN)NC(=O)[C@@H](CC(C)C)NC(=O)[C@H](CCCN)NC(=O)[C@H](Cc3ccc(OCC(=O)O)cc3)NC(=O)[C@H](Cc3ccc(-c4ccccc4)cc3)NC(=O)[C@H](Cc3ccc(O)cc3)NC2=O)c1` [Compound 2100] ({CH2CO}-[Dap]Y(Carboxymethyl)D[Phe(3-Me)]Y[Bip]Y(Carboxymethyl)[Orn][dL][Dab][Cha]V[hSer]C[Dab][Aun]-OH; thioether N-14), the IC50 was 13.9 nM. As to `CC(C)C[C@H]1NC(=O)[C@H](CCCN)NC(=O)[C@H](Cc2ccc(O)cc2)NC(=O)[C@H](Cc2ccc(-c3ccccc3)cc2)NC(=O)[C@H](C(C)C)NC(=O)[C@H](Cc2c[nH]c3ccccc23)NC(=O)[C@H](CC(=O)O)NC(=O)[C@H](Cc2ccc(OCC(=O)O)cc2)NC(=O)[C@H](CN)NC(=O)CSC[C@@H](C(=O)N[C@@H](CCN)C(=O)NCCCCCCCCCCC(=O)O)NC(=O)[C@H](CCCCN)NC(=O)[C@H](C(C)O)NC(=O)[C@H](CC2CCCCC2)NC(=O)[C@H](CCN)NC1=O` (stereo partly drawn) [Compound 3655] ({CH2CO}-[Dap]Y(Carboxymethyl)DWV[Bip]Y[Orn][dL][Dab][Cha][Thr(3ξ)]KC[Dab][Aun]-OH; thioether N-14), the IC50 worked out at 61.8 nM.

For `Cc1cccc(C[C@@H]2NC(=O)[C@H](CC(=O)O)NC(=O)[C@H](Cc3ccc(OCC(=O)O)cc3)NC(=O)[C@H](CCCNC(=N)N)NC(=O)CSC[C@@H](C(=O)N[C@@H](CCN)C(=O)NCCCCCCCCCCC(=O)O)NC(=O)[C@H](CCCN)NC(=O)[C@H](C(C)C)NC(=O)[C@H](CC3CCCCC3)NC(=O)[C@H](CCN)NC(=O)[C@@H](CC(C)C)NC(=O)[C@H](CCCN)NC(=O)[C@H](CCC(N)=O)NC(=O)[C@H](Cc3ccc(-c4ccccc4)cc3)NC(=O)[C@H](C(C)C)NC2=O)c1` [Compound 3356] ({CH2CO}-RY(Carboxymethyl)D[Phe(3-Me)]V[Bip]Q[Orn][dL][Dab][Cha]V[Orn]C[Dab][Aun]-OH; thioether N-14), the half-inhibitory concentration (IC50) came to 6.8 nM. Turning to `CCC(C)[C@@H]1NC(=O)[C@H](Cc2ccc(-c3ccccc3)cc2)NC(=O)[C@H](C(C)C)NC(=O)[C@H](Cc2cccc(C)c2)NC(=O)[C@H](CC(=O)O)NC(=O)[C@H](Cc2ccc(OCC(=O)O)cc2)NC(=O)[C@H](C(C)O)NC(=O)CSC[C@@H](C(=O)N[C@@H](CCCN)C(=O)NCCCCCCCCCCCC(=O)O)NC(=O)[C@H](C(C)O)NC(=O)[C@H](C(C)C)NC(=O)[C@H](CC2CCCCC2)NC(=O)[C@H](CCN)NC(=O)[C@@H](CC(C)C)NC(=O)[C@H](CCCN)NC1=O` (stereo partly shown) [Compound 3098], the half-inhibitory concentration (IC50) amounted to 25.6 nM.
